{"source": "patent US20250025455A1", "about": "“CONTROLLED-RELEASE NICOTINE CHEWING GUM” (Altria Client Services LLC, priority 2023, published 2025)", "origin": "cited, not measured here", "conditions": "free base (non-protonated) nicotine"}
{"molecule": "CN1CCCC1c1cccnc1", "note": "(stereo not shown) [Free-base nicotine, 3-(1-methyl-2-pyrrolidinyl) pyridine]", "values": [{"measurement": "pKa value", "value": "about 8"}]}
